Reference: patent US20040131619A1, “Thymic atrophy” (DUKE UNIVERSITY, priority 2002, published 2004)

Key:
BALB/c mice = assay: LIF-induced acute thymic atrophy (metyrapone pre-treatment, adrenalectomy); format: in vivo; details: metyrapone 30 mg/kg IP 24 hours before LIF for 3 days; P<0.0094
Protocol: Normal and adrenalectomized female BALB/c mice (6-8 week) were purchased from The Jackson Laboratory (Bar Harbor, Me.). Animals were housed in specific pathogen free conditions in the Duke University Vivarium Barrier (Durham, N.C.). Mouse handling and experimental procedures were conducted in accordance with AALAC and the Duke University IACUC guidelines for animal care and use.
Animals were treated with either E. coli LPS (Sigma, L2880, St. Louis, Mo.), recombinant murine LIF (R&D Systems, Minneapolis, Minn.), goat IgG (Sigma) or anti-mouse LIF polyclonal goat IgG (R&D Systems) and metyrapone (Sigma). Mouse thymus tissue was excised following euthanasia. Half of each thymus was snap frozen in a dry ice/ETOH bath and stored in liquid nitrogen for RNA extraction and the other half was teased into a single-cell suspension as previously described (Sempowski et al, Journal of Immunology 164:2180 (2000)). […]
Normal and bilaterally adrenalectomized BALB/c mice were treated with LIF (3 μg, 3× a day) or saline for 3 days, and the degree of thymic atrophy assessed. […] To evaluate the status of LIF mRNA in the thymus of LIF injected mice, thymus LIF mRNA levels were determined in control and LIF-treated mice. […]

[1] = tested on: CD3+, CD4/CD8 DP thymocytes; assay: Murine fetal thymic organ culture (FTOC); format: cell-based, mouse
Protocol: Phenotypic analysis of thymocyte suspensions was performed on a FACSVantage SE (Becton Dickinson) using fluorescein isothiocyanate-CD3, phycoerythrin-CD4, and phycoerythrin cychrome 5-CD8 (Pharmingen) as previously described (Sempowski et al, Journal of Immunology 164:2180 (2000)). Annexin V-FITC/propidium iodide (PI) staining was used to determine thymocyte apoptosis, necrosis and viability (Coulter).
FTOC were established following the methods described by Vacchio et al. (Journal of Experimental Medicine 185:2033 (1997)). Briefly, thymic lobes were removed from 17 day gestation fetal mice and were cultured in 6-well plates on Gelfoam (Pharmacia & Upjohn, Kalamazoo, Mich.) rafts. Cultures (2-4 lobes/well) were treated with murine LIF (R&D Systems) with or without metyrapone and then harvested by disruption against a 70 μm cell strainer (Becton Dickinson) with a 1 cc plunger (Becton Dickinson). Total thymocyte number per lobe was determined by hemacytometer count with trypan dye exclusion.
To directly determine if LIF can induce intrathymic corticosteroid production and thymocyte depletion, 17 day fetal thymic lobes in FTOC were treated with LIF (10 ng/ml) in the presence or absence of metyrapone (FIG. 4). Absolute numbers of CD3^+, CD4/CD8 DP thymocytes were quantitated as a measure of in vitro LIF-induced thymic atrophy after 72 hours. […]

CC(C)(C(=O)c1cccnc1)c1cccnc1 [Metyrapone, metyrapone]
inhibition of LIF-induced acute thymic atrophy (BALB/c mice): 43% | depletion of DP thymocytes ([1]; FTOC, 72 hours, agent alone (LIF 10 ng/ml; metyrapone alone), P<0.05): 8% | LIF-induced depletion of DP thymocytes ([1]; metyrapone added to LIF-treated (10 ng/ml) FTOC): prevented
